# Measured values published in patent publication EP0491041A1, “ANTIVIRAL DRUG” (NIPPON SHINYAKU COMPANY, LIMITED, priority 1989, dated 1991).
# Legend:
# [1] = test system: virus; assay: Antiviral action test: screening by inhibition of cell degeneration effect (CPE) in virus-infected HeLa cells; assay type: cell-based; details: amount of added drug whereby the CPE became 50%, M.O.I = 0.002, culture for three days
# Experimental: HeLa cells were subjected to subcultured by monolayer culture (Eagle's MEM-10% CS) and infected as M.O.I. (multiplicity of infection) = 0.01.
# On the first day, HeLa cells were spread in a 75 cm³ flask and cultured on a one-day growth medium (Eagle's MEM-10% CS). On the second day, old medium was removed after confirming the formation of cell sheet, then M.O.I was made 0.01 PFU/cell and 0.5 ml of virus solution was added. The original virus solution was diluted with PBS-3% FCS solution. Operation of the virus inoculation was conducted by tilting for 1 hour at room temperature. After virus was inoculated on the cells, the virus-inoculated solution was removed, washed twice with 10 ml PBS and the residual virus solution was removed. Then 15 ml of maintenance medium (Eagle's MEM-1% CS) was added and cultured at 37°C for 2 days. The cells were observed from time to time and the culture was continued until cell fusion and cell rounding were confirmed. After the culture, medium was recovered which was used as a virus solution and was stored at -20°C until actual use.
# The 78 cm³ flask containing HeLa cells which were subjected to a monolayer maintenance subculture was taken out, the old medium was discarded, 2-3 ml of 0.25% trypsine (Difco = 1:250)-0.02% EDTA/PBS(-) solution was added, tilted for a few seconds, the trypsine solution was removed and warmed at 37°C for 5 minutes. Then fresh medium was added, pipetted with a Komagome pipette and the cells were homogeneously dispersed.
# Cells were counted using a cytometer, then fresh medium was added, diluted to make the cell concentration 5 x 10⁵ cells/ml, 2 ml of that was added to a laboratory dish of 35 mm diameter and cultured in a CO₂-incubator at 37°C for one day to prepare cell sheet.
# The virus solution was diluted by a diluting solution to make diluted solutions of ten-times difference or step. The laboratory dish wherein HeLa cells were cultured on the previous day was taken out from the incubator, old medium was discarded and the cells were washed with each 2 ml of PBS twice. Properly diluted virus solution (0.2 ml) was added to each laboratory dish, subjected to a tilting at room temperature for 60 minutes immediately and virus was inoculated. Then the virus solution was removed, each 2 ml of 0.5% methylcellulose/Eagle's MEM-1% CS was added and cultured in a CO₂ incubator for 4 days.
# The cultured laboratory dish was taken out from the CO₂-incubator and methylcellulose medium was removed. Then cells were washed with 2 ml of PDS, 2 ml of methanol was added, allowed to stand for 10 minutes and cells were immobilized and, at the same time, virus was sterilized. Hematoxylin dyeing solution (2 ml) was added to the laboratory dish which was immobilized with methanol, allowed to stand for about 10 minutes, washed with water and air-dried at room temperature. Since the cells destructed with virus were not dyed, plaque area was noted as a void and the plaque numbers were counted whereby virus value (PFU/ml) (Plaque forming units/ml) was measured.
# HeLa cells during the subculture were dispersed with trypsine liquid-EDTA solution, 5 x 10⁵ cells/pore were embedded on a plate having 24 pores and cultured overnight at 37°C in a CO₂-incubator to prepare cell sheet.
# As mentioned above, old medium was discarded, the cells were washed with PBS, the virus solution was diluted to make M.O.I = 0.002, 0.1 ml of it was added to each pore, subjected to a tilting at room temperature for 60 minutes and virus was inoculated to the cell.
# Virus solution was removed from the cells after inoculation of virus, the cells were washed with 2 ml of PBS, each 1 ml of maintenance medium was added to each pore, then each 10 µl of the drug was added and the cells were cultured in a CO₂-incubator. Culture was conducted for three days.
# The cells on the plate were observed under an invert microscope. Cell degeneration effect (CPE) was observed as cell fusion and making the cells round. […]
# [2] = Acute toxicity test in mice; assay type: in vivo; details: male mice, ddY strain, observation for one week
# Experimental: Four male mice (ddY strain; six weeks age) were used for each drug tested.
# In the intraperitoneal administration, each drug was suspended in 0.5% CMC-physiological saline solution and 0.1 ml (per 10 g body weight of mouse) of the suspension was intraperitoneally given to mouse. In the case of oral administration, each drug was suspended in 0.5% CMC-physiological saline solution and 0.2 ml (per 10 g body weight of mouse) of the suspension was given orally. Observation was started soon after administration and, after observation for one week, the mice were killed by chloroform and subjected to autopsied. LD₅₀ of each drug tested was given in the following tables wherefrom it is clear that the compounds of the present invention are safe.
SMILES,EC50 (50% CPE inhibition) [1],L D ₅₀ ([2]; Intraperitoneal Administration),L D ₅₀ ([2]; Oral Administration)
"CCN1C[C@H](O)[C@@H](O)[C@H](O)[C@H]1CO [B, N-ethylmoranoline, reference compound]",>100 µg/mL,,
"Cc1ccc(S(=O)(=O)O)cc1.OC[C@@H]1[C@@H](O)[C@H](O)[C@@H](O)CN1CCCC=Cc1ccccc1 [Compound No. 89, N-(5-Phenyl-4-pentenyl)moranoline tosylate]",10 µg/mL,,
"OC[C@@H]1[C@@H](O)[C@H](O)[C@@H](O)CN1CCCOc1ccc(Cl)cc1 [Compound No. 93, N-[3-(4-Chlorophenoxy)propyl]moranoline]",30 µg/mL,,
"O.OC[C@@H]1[C@@H](O)[C@H](O)[C@@H](O)CN1CC=C(c1ccccc1)c1ccc(Cl)cc1 [Compound No. 99, N-(gamma-Phenyl-4-chlorocinnamyl)moranoline monohydrate]",30 µg/mL,,
"OC[C@@H]1[C@@H](O)[C@H](O)[C@@H](O)CN1CC=C(c1ccccc1)c1ccc(F)cc1 [Compound No. 100, N-(gamma-Phenyl-4-fluorocinnamyl)moranoline]",10 µg/mL,,
"CC(=CCN1C[C@H](O)[C@@H](O)[C@H](O)[C@H]1CO)c1ccc(Br)cc1 [Compound No. 101, N-(gamma-Methyl-4-bromocinnamyl)moranoline]",30 µg/mL,,
"CC(=CCN1C[C@H](O)[C@@H](O)[C@H](O)[C@H]1CO)c1ccc(Cl)c(Cl)c1 [Compound No. 102, N-(gamma-Methyl-3,4-dichlorocinnamyl)moranoline]",10 µg/mL,,
"COc1ccc(C(C)=CCN2C[C@H](O)[C@@H](O)[C@H](O)[C@H]2CO)cc1 [Compound No. 103, N-(magga-Methyl-4-methoxycinnamyl)moranoline]",30 µg/mL,> 300 mg/kg,"> 5,000 mg/kg"
"COc1ccc(C(=CCN2C[C@H](O)[C@@H](O)[C@H](O)[C@H]2CO)c2ccccc2)cc1 [Compound No. 105, N-(gamma-Phenyl-4-methoxycinnamyl)moranoline]",100 µg/mL,,
"C=C(C)C1CC=C(CN2C[C@H](O)[C@@H](O)[C@H](O)[C@H]2CO)CC1.Cc1ccc(S(=O)(=O)O)cc1 (some centres unmarked) [Compound No. 106, N-[(4-Isopropenyl-1-cyclohexenyl)methyl]moranoline tosylate]",30 µg/mL,,
"CC(=CCCN1C[C@H](O)[C@@H](O)[C@H](O)[C@H]1CO)c1cccc(F)c1 [Compound No. 107, N-[4-(3-Fluorophenyl)-3-pentenyl]moranoline]",30 µg/mL,,
"CC(=CCCN1C[C@H](O)[C@@H](O)[C@H](O)[C@H]1CO)c1ccc(F)cc1 [Compound No. 108, N-[4-(4-Fluorophenyl)-3-pentenyl]moranoline]",30 µg/mL,,
"CC(=CCCN1C[C@H](O)[C@@H](O)[C@H](O)[C@H]1CO)c1ccccc1C [Compound No. 109, N-[4-(2-Methylphenyl)-3-pentenyl]moranoline]",30 µg/mL,,
"CC(=CCCN1C[C@H](O)[C@@H](O)[C@H](O)[C@H]1CO)c1ccc(Cl)cc1 [Compound No. 110, N-[4-(4-Chlorophenyl)-3-pentenyl]moranoline]",10 µg/mL,,
"CC(=CCCN1C[C@H](O)[C@@H](O)[C@H](O)[C@H]1CO)c1cccc(Cl)c1 [Compound No. 111, N-[4-(3-Chlorophenyl)-3-pentenyl]moranoline]",30 µg/mL,,
"CC(=CCCN1C[C@H](O)[C@@H](O)[C@H](O)[C@H]1CO)c1ccccc1Cl [Compound No. 112, N-[4-(2-Chlorophenyl)-3-pentenyl]moranoline]",30 µg/mL,,

SMILES,EC50 (50% CPE inhibition) [1],L D ₅₀ ([2]; Intraperitoneal Administration),L D ₅₀ ([2]; Oral Administration)
"CC(=CCCN1C[C@H](O)[C@@H](O)[C@H](O)[C@H]1CO)c1cccc(C(F)(F)F)c1 [Compound No. 113, N-[4-(3-Trifluoromethylphenyl)-3-pentenyl]moranoline]",30 µg/mL,,
"CC(=CCCN1C[C@H](O)[C@@H](O)[C@H](O)[C@H]1CO)c1ccc(N(C)C)cc1 [Compound No. 114, N-[4-(4-Dimethylaminophenyl)-3-pentenyl]moranoline]",30 µg/mL,,
"COc1ccccc1C(C)=CCCN1C[C@H](O)[C@@H](O)[C@H](O)[C@H]1CO [Compound No. 116, N-[4-(2-Methoxyphenyl)-3-pentenyl]moranoline]",30 µg/mL,,
"CCOc1ccc(C(C)=CCCN2C[C@H](O)[C@@H](O)[C@H](O)[C@H]2CO)cc1 [Compound No. 118, N-[4-(4-Ethoxyphenyl)-3-pentenyl]moranoline]",30 µg/mL,,
"CC(=CCCN1C[C@H](O)[C@@H](O)[C@H](O)[C@H]1CO)c1cc(C(C)C)ccc1C [Compound No. 119, N-[4-(2-Methyl-5-isopropylphenyl)-3-pentenyl]moranoline]",3 µg/mL,,
"OC[C@@H]1[C@@H](O)[C@H](O)[C@@H](O)C[N+]1(CC=Cc1ccccc1Cl)CC=Cc1ccccc1Cl.[Cl-] (some centres unmarked) [Compound No. 123, N,N-Bis(2-chlorocinnamyl)moranoline ammonium chloride]",3 µg/mL,,
"Cc1ccc(C=CCCN2CC(O)C(O)C(O)C2CO)cc1F (centres unmarked) [Compound No. 133, 4-[4-(3-Fluoro-4-methylphenyl)-3-butenyl]moranoline]",30 µg/mL,,
"COc1ccc(C=CCCCN2C[C@H](O)[C@@H](O)[C@H](O)[C@H]2CO)cc1Cl [Compound No. 148, N-[5-(3-Chloro-4-methoxyphenyl)-4-pentenyl]moranoline]",30 µg/mL,,
"Cc1ccc(CCCCN2C[C@H](O)[C@@H](O)[C@H](O)[C@H]2CO)cc1F [Compound No. 150, N-[4-(3-Fluoro-4-methylphenyl)butyl]moranoline]",30 µg/mL,,
"COc1ccc(C=CCCCN2C[C@H](O)[C@@H](O)[C@H](O)[C@H]2CO)c(C)c1 [Compound No. 151, N-[5-(4-Methoxy-2-methylphenyl)-4-pentenyl]moranoline]",30 µg/mL,,
"COCCOc1cccc(C(C)=CCN2C[C@H](O)[C@@H](O)[C@H](O)[C@H]2CO)c1 [Compound No. 157, N-[3-(3-Methoxyethoxyphenyl)-2-butenyl]moranoline]",100 µg/mL,,
"CCOc1cccc(C(C)=CCN2C[C@H](O)[C@@H](O)[C@H](O)[C@H]2CO)c1 [Compound No. 159, N-(gamma-Methyl-3-ethoxycinnamyl)moranoline]",30 µg/mL,,
"CCOc1ccc(C(C)=CCN2C[C@H](O)[C@@H](O)[C@H](O)[C@H]2CO)cc1 [Compound No. 160, N-[3-(4-Ethoxyphenyl)-2-butenyl]moranoline]",10 µg/mL,,
"CCCCCCCCCCCCCCCCCC(=O)N1C[C@H](O)[C@@H](O)[C@H](O)[C@H]1CO [Compound No. 171, N-Stearoylmoranoline]",30 µg/mL,,
"CCCCCCCCCCCCCC(=O)N1C[C@H](O)[C@@H](O)[C@H](O)[C@H]1CO [Compound No. 174, N-Myristoylmoranoline]",10 µg/mL,,
"OC[C@@H]1[C@@H](O)[C@H](O)[C@@H](O)CN1CCCCc1ccc(Oc2ccccc2)cc1 [Compound No. 205, N-[4-(4-Phenoxyphenyl)butyl]moranoline]",,> 300 mg/kg,"> 5,000 mg/kg"
